# Data reported in ChEMBL document CHEMBL1149927, “Synthesis of 7-methoxy-2-(1,3-dithiolan-2-ylidene)cephem sulphones. A new series of human leukocyte elastase inhibitors” (Bioorg Med Chem Lett, 1996).
# Target: T1, Neutrophil elastase (Homo sapiens, UniProt P08246)
# T1 sequence (P08246 whole entry): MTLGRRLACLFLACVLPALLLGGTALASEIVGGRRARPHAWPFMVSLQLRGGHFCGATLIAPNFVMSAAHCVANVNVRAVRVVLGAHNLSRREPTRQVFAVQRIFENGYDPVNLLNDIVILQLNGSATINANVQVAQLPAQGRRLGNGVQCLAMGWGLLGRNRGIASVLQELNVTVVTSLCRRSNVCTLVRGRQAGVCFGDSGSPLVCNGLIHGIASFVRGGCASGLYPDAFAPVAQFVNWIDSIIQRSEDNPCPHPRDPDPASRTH
# Test: Inhibitory activity against human sputum elastase (HSE)
row,Compound,IC50 [nM]
1,CO[C@H]1C(=O)N2C(C(=O)OC(C)(C)C)=C(C)C(=C(SC)SC)S(=O)(=O)C12 (stereo not given in full),74
2,CO[C@H]1C(=O)N2C(C(=O)OC(C)(C)C)=C(C)CS(=O)(=O)C12 (stereo not given in full),1800
3,CO[C@H]1C(=O)N2C(C(=O)OC(C)(C)C)=C(C)C(=C3SCC(O)CS3)S(=O)(=O)C12 (stereo not given in full),330

# Further lines, results first:
row,IC50 [nM],Compound
1,320,CO[C@H]1C(=O)N2C(C(=O)OC(C)(C)C)=C(C)C(=C3SCC(OC(C)=O)CS3)S(=O)(=O)C12 (stereo not given in full)
2,380,CO[C@H]1C(=O)N2C(C(=O)OC(C)(C)C)=C(C)C(=C3SCCS3)S(=O)(=O)C12 (stereo not given in full)
